According to patent publication US9499493B2, “2,4-pyrimidinediamine compounds and their uses” (Rigel Pharmaceuticals, Inc., priority 2002, dated 2016):

Legend:
[1] = tested on: cultured human mast cells (CHMC); assay: CHMC low cell density IgE activation: tryptase assay; assay type: cell-based; conditions: anti-IgE
Method in brief: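 Low-density CHMC assay: donor-adjusted 1000-1500 cells/well, MT buffer, 1 hr 37° C preincubation; anti-IgE stimulus 30 min 37° C versus MT-only controls; supernatant tryptase by substrate, 30 min RT.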

[2] = tested on: cultured human mast cells (CHMC); assay: CHMC low cell density ionomycin activation: tryptase assay; assay type: cell-based

| Compound | IC50 [1] [µM] | IC50 [2] [µM] |
| --- | --- | --- |
| OB(O)c1cccc(Nc2ncc(F)c(Nc3ccc4c(c3)OCCO4)n2)c1 [R926837, N2-(3-Boronylphenyl)-N4-(3,4-ethylenedioxyphenyl)-5-fluoro-2,4-pyrimidinediamine] | 2.99 | > 10 |
| CNCCNC(=O)CNc1cccc(Nc2ncc(F)c(Nc3cccc(NCCO)c3)n2)c1 [R950234, 5-Fluoro-N4-[3-(2-hydroxyethylamino)phenyl]-N2-[3-[N-(2-methylamino)ethylamino]carbonylmethyleneaminophenyl]-2,4-pyrimidinediamine] | 10 | > 10 |
| N#CCOc1ccc(Nc2nc(Nc3ccc(OCC(=O)O)cc3)ncc2F)cc1 [R945097, N2-(4-Carboxymethyleneoxyphenyl)-N4-(4-cyanomethyleneoxyphenyl)-5-fluoro-2,4-pyrimidinediamine] | 10 | > 10 |
| CNC(=O)C1Cc2cc(Nc3ncc(F)c(Nc4ccc(OCCO)nc4)n3)ccc2O1 (racemic) [R927039, (±)-N2-[2,3-Dihydro-(N-methylamino)carbonylbenzofuran-5-yl]-5-fluoro-N4-[2-(2-hydroxyethyleneoxy)pyridin-5-yl]-2,4-pyrimidinediamine] | 1.23 | > 10 |
| COc1ccc(-c2ccccc2)cc1Nc1ncc(F)c(Nc2cc(-c3ccccc3)ccc2OC)n1 [R926400, N2,N4-Bis[(2-methoxy-5-phenyl)phenyl]-5-fluoro-2,4-pyrimidinediamine] | > 10 | > 10 |
| N2-(Carboxymethyleneaminophenyl)-5-fluoro-N4-[3-(2-hydroxyethyloxy)phenyl]-2,4-pyrimidinediamine [R950230] | 7.91 | > 10 |
| CCOC(=O)COc1cccc(Nc2nc(Nc3cc(OC)cc(OC)c3)ncc2F)c1 [R926804, N2-(3,5-Dimethoxyphenyl)-N4-(3-ethoxycarbonylmethyleneoxyphenyl)-5-fluoro-2,4-pyrimidinediamine] | 1.58 | 7.11 |
| C=CCNC(=O)Oc1cccc(Nc2nc(Nc3cccc(OCC(=O)NC)c3)ncc2F)c1 [R926917, 5-Fluoro-N4-[3-[(N-allylamino)carbonyloxy]phenyl]-N2-[3-[(N-methylamino)carbonylmethyleneoxy]phenyl]-2,4-pyrimidinediamine] | 1.17 | > 10 |
| O=C(COc1cccc(Nc2ncc(F)c(Nc3cc(Cl)c(O)c(Cl)c3)n2)c1)N1CCNCC1 [R950188, N4-(3,5-Dichloro-4-hydroxyphenyl)-5-fluoro-N2-[3-(N-piperazino)carbonylmethyleneoxyphenyl]-2,4-pyrimidinediamine] | 2.33 | > 10 |
| CC(C)NC(=O)COc1ccc(Nc2ncc(C#N)c(Nc3ccc(OCC(=O)NC(C)C)cc3)n2)cc1 [R925861, N2,N4-Bis[4-(N-isopropylamino)carbonylmethyleneoxyphenyl]-5-cyano-2,4-pyrimidinediamine] | > 10 | > 10 |
| O=C(O)COc1ccc(Nc2ncc(F)c(Nc3ccc(OCC(=O)O)cc3)n2)cc1 [R926560, N2,N4-Bis(4-carboxymethyleneoxy)phenyl-5-fluoro-2,4-pyrimidinediamine] | > 10 | > 10 |
| CCOC(=O)C(C)(C)c1ccc(Nc2nc(Nc3ccc4c(c3)OCCO4)ncc2F)cc1 [R935172] | 1.39 | 6.81 |
| CCOC(=O)COc1ccc(Nc2nc(Nc3ccc(OCC(=O)OCC)cc3)c(NC(=O)NC3CCCC3)c(C(=O)OCC)n2)cc1 [R926588, N2,N4-Bis(4-ethoxycarbonylmethyleneoxyphenyl)-6-ethoxycarbonyl-5-(cyclopentylaminocarbonylamino)-2,4-pyrimidinediamine] | 7.85 | > 10 |
| CCOC(=O)c1cnc(Nc2ccc(OCC(=O)NCC(O)CO)cc2)nc1Nc1cccc(O)c1 (centres unmarked) [R925840, N2-[4-(N-2,3-Dihydroxypropylamino)carbonylmethyleneoxyphenyl]-5-ethoxycarbonyl-N4-(3-hydroxyphenyl)-2,4-pyrimidinediamine] | > 10 | > 10 |
| CC(C)(C)c1cccc(Nc2nc(Nc3cccc(OCC(=O)O)c3)ncc2F)c1 [R940280, N4-(3-tert-Butylphenyl)-N2-[3-carboxymethyleneoxyphenyl]-5-fluoro-2,4-pyrimidinediamine] | 7 | > 10 |
| CCOC(=O)COc1ccc(Nc2nc(Nc3ccc(OCC(=O)OCC)cc3)c(N)c(C(=O)OCC)n2)cc1 [R926567, 5-Amino-N2,N4-bis(4-ethoxycarbonylmethyleneoxyphenyl)-6-ethoxycarbonyl-2,4-pyrimidinediamine] | 9.3 | > 10 |

The next compounds have a lower IC50 [1] than those just listed; values first:

| IC50 [1] [µM] | IC50 [2] [µM] | Compound |
| --- | --- | --- |
| 1.01 | > 10 | Cn1nnnc1COc1ccc(Nc2ncc(F)c(Nc3cccc(O)c3)n2)cc1 [R920860, 5-Fluoro-N4-(3-hydroxyphenyl)-N2-[4-(1-methyl-1,2,3,4-tetrazol-5-yl)methyleneoxyphenyl]-2,4-pyrimidineamine] |
| 0.889 | > 10 | CC(C)(CO)c1ccc(Nc2ncc(F)c(Nc3ccc4oc(CO)cc4c3)n2)cc1 [R935177, 5-Fluoro-N2-[4-(2-hydroxy-1,1,dimethylethyl)phenyl]-N4-(2-hydroxymethylbenzofur-5-yl)-2,4-pyrimidinediamine] |
| 0.61 | 3.07 | CCOC(=O)COc1ccc(Nc2nc(Cl)c(Cl)c(Nc3ccc(OCC(=O)OCC)cc3)n2)cc1 [R926569, N2,N4-Bis(4-ethoxycarbonylmethyleneoxyphenyl)-5,6-dichloro-2,4-pyrimidinediamine] |
| 0.568 | > 10 | COC(=O)c1cc(Nc2nc(Nc3ccc4c(c3)OCCO4)ncc2F)cn1C [R935166, N2-(3,4-Ethylenedioxyphenyl)-5-fluoro-N4-[(N-methyl-2-methoxycarbonyl)pyrrol-4-yl]-2,4-pyrimidinediamine] |
| 0.444 | > 10 | CNC(=O)COc1cccc(Nc2ncc(F)c(Nc3ccc4c(c3)OC(F)(F)C(F)(F)O4)n2)c1 [R926732, 5-Fluoro-N4-[3,4-(1,1,2,2-tetrafluoroethylendioxy)phenyl]-N2-[3-(N-methylamino)carbonylmethyleneoxyphenyl]-2,4-pyrimidinediamine] |
| 0.387 | > 10 | CCOC(=O)CSc1ccc(Nc2ncc(F)c(Nc3ccc4c(c3)OCCO4)n2)cn1 [R926727, N2-[2-(Ethoxycarbonylmethylenethio)pyridin-5-yl]-N4-(3,4-ethylenedioxyphenyl)-5-fluoro-2,4-pyrimidinediamine] |
| 0.365 | > 10 | CNC(=O)COc1cccc(Nc2ncc(F)c(Nc3cccc(Cl)c3)n2)c1 [R926832, N4-(3-Chlorophenyl)-5-fluoro-N2-[3-(N-methylamino)carbonylmethyleneoxyphenyl]-2,4-pyrimidinediamine] |
| 0.343 | > 10 | O=C(COc1cccc(Nc2ncc(F)c(Nc3cccc(O)c3)n2)c1)NCCO [R926506, 5-Fluoro-N4-(3-hydroxyphenyl)-N2-[3-(N-2-hydroxyethylamino)carbonylmethyleneoxyphenyl]-2,4-pyrimidinediamine] |
| 0.274 | > 10 | Fc1cnc(Nc2ccc3[nH]ncc3c2)nc1Nc1ccc2c(c1)OC(F)(F)O2 [R935373, N4-(3,4-Difluoromethylendioxyphenyl)-5-fluoro-N2-(indazoline-5-yl)-2,4-pyrimidinediamine] |
| 0.267 | > 10 | OCCNc1cccc(Nc2ncc(F)c(Nc3ccc4c(c3)OCCO4)n2)c1 [R950208, N4-(3,4-Ethylenedioxyphenyl)-5-fluoro-N2-[3-(hydroxyethyleneamino)phenyl]-2,4-pyrimidinediamine] |
| 0.261 | > 10 | CSc1nc2ccc(Nc3ncc(F)c(Nc4ccc5c(c4)OCCO5)n3)cc2s1 [R950201, N4-(3,4-Ethylenedioxyphenyl)-5-fluoro-N2-[2-(methylthio)-1,3-benzothiaz-6-yl]-2,4-pyrimidinediamine] |
| 0.252 | 5.64 | CC(C)(CO)NC(=O)COc1cccc(Nc2ncc(F)c(Nc3ccc4c(c3)OCCO4)n2)c1 [R926764, N4-(3,4-Ethylenedioxyphenyl)-5-fluoro-N2-[3-(N-2-hydroxy-1,1-dimethylethylamino)carboxymethyleneoxyphenyl]-2,4-pyrimidinediamine] |
| 0.208 | > 10 | CNC(=O)COc1cccc(Nc2ncc(F)c(Nc3cccc(C(C)C)c3)n2)c1 [R940288, 5-Fluoro-N4-(3-isopropylphenyl)-N2-[3-(N-methylamino)carbonylmethyleneoxyphenyl]-2,4-pyrimidinediamine] |
| 0.198 | > 10 | CNC(=O)COc1cccc(Nc2ncc(F)c(Nc3cccc(N(C)C)c3)n2)c1 [R950264, N4-(3-Bis-N-methylaminophenyl)-5-fluoro-N2-[3-(N-methylamino)carbonylmethyleneoxyphenyl]-2,4-pyrimidinediamine] |
| 0.189 | > 10 | OCCCn1ncc2cc(Nc3ncc(F)c(Nc4ccc5c(c4)OCCO5)n3)ccc21 [R935302, N4-(3,4-Ethylenedioxyphenyl)-5-fluoro-N2-[1-(3-hydroxypropyl)indazoline-5-yl]-2,4-pyrimidinediamine] |
| 0.185 | > 10 | CNC(=O)COc1cccc(Nc2ncc(F)c(Nc3ccc(-n4cnc(Cl)c4Cl)cc3)n2)c1 [R926812, N4-[4-(4,5-Dichloro-1H-imidazol-1-ylphenyl)]-5-fluoro-N2-[3-(N-methylamino)carbonylmethyleneoxyphenyl]-2,4-pyrimidinediamine] |
| 0.119 | 1.48 | COC(=O)COc1ccc(Nc2ncc(F)c(Nc3ccc(OCC#N)cc3)n2)cc1 [R945053, N4-(4-Cyanomethyleneoxyphenyl)5-fluoro-N2-(4-methoxycarbonylmethyleneoxyphenyl)-2,4-pyrimidinediamine] |
| 0.071 | > 10 | O=C1COc2ccc(Nc3ncc(F)c(Nc4cccc(O)c4)n3)cc2N1 [R909268, N2-(1,4-Benzoxazin-3-on-6-yl)-5-fluoro-N4-(3-hydroxyphenyl)-2,4-pyrimidinediamine] |
